Patent US8664223B2, “Pyridine and pyrimidine derivatives as inhibitors of histone deacetylase” (Janssen Pharmaceutica N.V, priority 2006, dated 2014)
Converted amounts (≈) assume the structure as drawn. Structures can show the parent of a compound that is named as a salt. Where two headings read alike, the source gives them in different places.

Key:
[1] = not given; remark: listed apart in the source
[2] = target: histone deacetylase (HeLa nuclear extracts); assay: In vitro assay for inhibition of histone deacetylase with fluorescent-labelled substrate (Fluor de Lys); format: biochemical; details: HeLa nuclear extracts 60 μg/ml, 75 μM substrate
Source text: The in vitro assay for inhibition of histone deacetylase (see example C.1) measures the inhibition of HDAC enzymatic activity obtained with the compounds of formula (I).
The HDAC Fluorescent Activity Assay/Drug Discovery Kit of Biomol (cat. No: AK-500-0001) was used. The HDAC Fluorescent Activity Assay is based on the Fluor de Lys (Fluorogenic Histone deAcetylase Lysyl) substrate and developer combination. The Fluor de Lys substrate, comprises an acetylated lysine side chain. Deacetylation of the substrate sensitizes the substrate so that, in the second step, treatment with the Fluor de Lys developer produces a fluorophore.
HeLa nuclear extracts (supplier: Biomol) were incubated at 60 μg/ml with 75 μM of substrate. The Fluor de Lys substrate was added in a buffer containing 25 mM Tris, 137 mM NaCl, 2.7 mM KCl and 1 mM MgCl2.6H2O at pH 7.4. After 30 min, 1 volume of the developer was added. The fluorophore was excited with 355 nm light and the emitted light (450 nm) was be detected on a fluorometric plate reader.
For each experiment, controls (containing HeLa nuclear extract and buffer), a blank incubation (containing buffer but no HeLa nuclear extract) and samples (containing compound dissolved in DMSO and further diluted in buffer and HeLa nuclear extract) were run in parallel. In first instance, compounds were tested at a concentration of 10^−5M. […] All sample were tested 4 times. In each test the blank value was subtracted from both the control and the sample values. The control sample represented 100% of substrate deacetylation. For each sample the fluorescence was expressed as a percentage of the mean value of the controls. […] Herein the effects of test compounds are expressed as pIC50 (the negative log value of the IC50-value) (see Table F-2).

[3] = system: A2780 ovarian carcinoma cells; assay: Antiproliferative activity on A2780 cells (MTT); format: cell-based; details: Homo sapiens, 96 h, four days of incubation, read-out: Cellular activity pIC50 C.2 (converted)
Protocol: Cellular activity of the compounds of formula (I) was determined on A2780 tumour cells using a colorimetric assay for cell toxicity or survival (Mosmann Tim, Journal of Immunological Methods 65: 55-63, 1983) (see example C.2).
All compounds tested were dissolved in DMSO and further dilutions were made in culture medium. Final DMSO concentrations never exceeded 0.1% (v/v) in cell proliferation assays. Controls contained A2780 cells and DMSO without compound and blanks contained DMSO but no cells. MTT was dissolved at 5 mg/ml in PBS. A glycine buffer comprised of 0.1 M glycine and 0.1 M NaCl buffered to pH 10.5 with NaOH (1N) was prepared (all reagents were from Merck).
The human A2780 ovarian carcinoma cells (a kind gift from Dr. T. C. Hamilton [Fox Chase Cancer Centre, Pennsylvania, USA]) were cultured in RPMI 1640 medium supplemented with 2 mM L-glutamine, 50 μg/ml gentamicin and 10% fetal calf serum. Cells were routinely kept as monolayer cultures at 37° C. in a humidified 5% CO2 atmosphere. Cells were passaged once a week using a trypsin/EDTA solution at a split ratio of 1:40. All media and supplements were obtained from Life Technologies. Cells were free of mycoplasma contamination as determined using the Gen-Probe Mycoplasma Tissue Culture kit (supplier: BioMérieux).
Cells were seeded in NUNC™ 96-well culture plates (Supplier: Life Technologies) and allowed to adhere to the plastic overnight. Densities used for plating were 1500 cells per well in a total volume of 200 μl medium. After cell adhesion to the plates, medium was changed and drugs and/or solvents were added to a final volume of 200 μl. Following four days of incubation, medium was replaced by 200 μl fresh medium and cell density and viability was assessed using an MTT-based assay. To each well, 25 μl MTT solution was added and the cells were further incubated for 2 hours at 37° C. The medium was then carefully aspirated and the blue MTT-formazan product was solubilized by addition of 25 μl glycine buffer followed by 100 μl of DMSO. […] Within an experiment, the results for each experimental condition are the mean of 3 replicate wells. For initial screening purposes, compounds were tested at a single fixed concentration of 10^−6 M. For active compounds, the experiments were repeated to establish full concentration-response curves. For each experiment, controls (containing no drug) and a blank incubation (containing no cells or drugs) were run in parallel. The blank value was subtracted from all control and sample values. For each sample, the mean value for cell growth (in absorbance units) was expressed as a percentage of the mean value for cell growth of the control. […] Herein the effects of test compounds are expressed as pIC50 (the negative log value of the IC50-value) (see Table F-2).

[4] = Solubility/stability at pH 2.3 (chemiluminescent nitrogen detector); format: physicochemical; details: pH 2.3, aqueous buffer; read-out: Solubility C.3.b. pH = 2.3
Protocol: The solubility of a compound measures the ability of a compound to stay in solution. In the first method, the ability of a compound to stay in aqueous solution upon dilution (see example C.3.a) is measured. DMSO-stock solutions are diluted with a single aqueous buffer solvent in different consecutive steps. In this method (C.3.a), mixtures are then scanned in the BD Gentest Solubility Scanner for the occurrence of precipitation. In the second method the solubility of a compound at different pH's can be measured with the use of a chemiluminescent nitrogen detector (see example C.3.b).
C.3.b. Solubility/Stability at pH 2.3
The solubility of a compound, at pH 2.3, can also be measured with the use of a chemiluminescent nitrogen detector (see Table F-2).

Row | SMILES | melting point | Enzymatic activity pIC50 C.1 [2] | IC50 [3] | also measured
1 | CC(=O)NC(/C=C/c1ccccc1)CN1CCN(c2ncc(C(=O)NO)cn2)CC1 (stereo not drawn) (as salt: trifluoroacetic acid salt) (hydrate or solvate) [Compound 1] | 166 °C | – | – | –
2 | O=C(NO)c1cnc(N2CCN(CC(/C=C/c3ccccc3)N3C(=O)CCC3=O)CC2)nc1 (stereo not drawn) (as salt: trifluoroacetic acid salt) (hydrate or solvate) [Compound 3] | 148 °C | – | – | –
3 | O=C(NO)c1cnc(N2CCN(CC(/C=C/c3ccccc3)Oc3ccc(F)cc3)CC2)nc1 (stereo not drawn) (as salt: trifluoroacetic acid salt) (hydrate or solvate) [Compound 4] | 115 °C | – | – | –
4 | NC(/C=C/c1ccccc1)CN1CCN(c2ncc(C(=O)NO)cn2)CC1 (stereo not drawn) (as salt: trifluoroacetic acid salt) [Compound 2] | 124 °C | – | – | –
5 | COc1cc(N)c(Cl)cc1C(=O)NC1CCN(CCCOc2ccc(F)cc2)CC1OC (stereo not drawn) [Cisapride] | – | – | – | % metabolism ([1]; human, 15 min, 5 μM): 45%
6 | CC(=O)NC(/C=C/c1ccccc1)CN1CCN(c2ncc(C(=O)NO)cn2)CC1 (stereo not drawn) [Compound 1] | – | 8.2 | 398 nM | solubility [4]: 2400 µg/mL (≈ 5.85 mM)
7 | NC(/C=C/c1ccccc1)CN1CCN(c2ncc(C(=O)NO)cn2)CC1 (stereo not drawn) [Compound 2] | – | 8.2 | 79.4 nM | solubility [4]: 3100 µg/mL (≈ 8.41 mM)
8 | O=C(NO)c1cnc(N2CCN(CC(/C=C/c3ccccc3)N3C(=O)CCC3=O)CC2)nc1 (stereo not drawn) [Compound 3] | – | 7.5 | 7940 nM | –
9 | O=C(NO)c1cnc(N2CCN(CC(/C=C/c3ccccc3)Oc3ccc(F)cc3)CC2)nc1 (stereo not drawn) [Compound 4] | – | 7.3 | 1580 nM | –
10 | CS(=O)(=O)NC(/C=C/c1ccc(F)cc1)CN1CCN(c2ccc(C(=O)NO)cn2)CC1 (stereo not drawn) [Compound 6] | – | 7.0 | 5010 nM | –
11 | CCCO [propanol] | – | – | – | % metabolism ([1]; after 15 min incubation with active microsomes, compound 5 μM): 25%
